Experiments:
Echinochloa oryzicola [1] = experiment: Pre-emergence herbicide activity against Echinochloa oryzicola up to three-leaf stage; format: functional
[2] = Octanol-water partition co-efficient, log P of the compound in water at 25 degC; format: physicochemical
Zoysia matrella = experiment: Pre-emergence herbicide activity against Zoysia matrella measured 7 days after planting; format: functional
Echinochloa oryzicola [3] = experiment: Pre-emergence herbicide activity against Echinochloa oryzicola after 42 days; format: functional
Poa annua = experiment: Pre-emergence herbicide activity against Poa annua up to two-leaf stage; format: functional
Echinochloa crus-galli = experiment: Pre-emergence herbicide activity against Echinochloa crus-galli (barnyard grass) up to 3-leaf stage; format: functional

Structure (SMILES): CCC1(CC2(c3cccc(Cl)c3)CO2)C(=O)c2ccccc2C1=O (stereo not drawn) [(RS)-INDANOFAN]
- Activity (Echinochloa oryzicola [1]): 0.15 KgAi/ha
- logP [2]: 3.59
- Activity (Zoysia matrella): 1 KgAi/ha
- Activity (Echinochloa oryzicola [3]): 0.15 KgAi/ha
- Activity (Poa annua): 0.5 KgAi/ha
- Activity (Echinochloa crus-galli): 0.15 KgAi/ha
